# Reference: publication PMC7008064 (Drug Design, Development and Therapy, 2020)
# Experiments:
# HDAC1 = HDAC1 (Homo sapiens, UniProt Q13547); experiment: HDAC1 inhibitory activity; format: biochemical
# [1] = test system: colorectal adenocarcinoma (HT-29) cell line; experiment: cells; format: cell-based; conditions: for IC50: Homo sapiens, HT-29, 48 h, read-out: IC50 HT-29
# [2] = test system: neuroblastoma (SH-SY5Y) cell line; experiment: cells; format: cell-based; conditions: for IC50: Homo sapiens, SH-SY5Y, 48 h, read-out: IC50 SH-SY5Y
# HDAC2 = HDAC2 (Homo sapiens, UniProt Q92769); experiment: HDAC2 inhibitory activity; format: biochemical
# HDAC2, sequence (Q92769 whole entry): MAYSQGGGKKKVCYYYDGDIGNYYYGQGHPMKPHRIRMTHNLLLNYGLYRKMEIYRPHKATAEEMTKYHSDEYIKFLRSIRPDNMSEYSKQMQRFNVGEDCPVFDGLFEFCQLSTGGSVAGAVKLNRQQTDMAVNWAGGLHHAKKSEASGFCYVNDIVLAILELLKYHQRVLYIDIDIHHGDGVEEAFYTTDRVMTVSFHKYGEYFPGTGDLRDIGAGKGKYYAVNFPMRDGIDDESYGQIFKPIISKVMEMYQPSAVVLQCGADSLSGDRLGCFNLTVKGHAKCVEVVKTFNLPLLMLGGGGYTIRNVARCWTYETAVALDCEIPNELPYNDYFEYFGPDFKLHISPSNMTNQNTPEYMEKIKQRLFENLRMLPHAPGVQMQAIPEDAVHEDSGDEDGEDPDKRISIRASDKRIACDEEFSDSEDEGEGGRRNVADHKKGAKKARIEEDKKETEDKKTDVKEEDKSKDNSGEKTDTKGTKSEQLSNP
# [3] = HDAC1 IC50 (as printed in docking Table 3), unrounded values repeated in Table 3
# [4] = ratio of IC50 values vs Gefitinib
# [5] = HDAC2 IC50 (as printed in docking Table 4), unrounded values repeated in Table 4
# [6] = IC50 HDAC2, mean ± S.E. of three independent experiments
# [7] = IC50 HDAC1, mean ± S.E. of three independent experiments
# HDAC1, sequence (Q13547 whole entry): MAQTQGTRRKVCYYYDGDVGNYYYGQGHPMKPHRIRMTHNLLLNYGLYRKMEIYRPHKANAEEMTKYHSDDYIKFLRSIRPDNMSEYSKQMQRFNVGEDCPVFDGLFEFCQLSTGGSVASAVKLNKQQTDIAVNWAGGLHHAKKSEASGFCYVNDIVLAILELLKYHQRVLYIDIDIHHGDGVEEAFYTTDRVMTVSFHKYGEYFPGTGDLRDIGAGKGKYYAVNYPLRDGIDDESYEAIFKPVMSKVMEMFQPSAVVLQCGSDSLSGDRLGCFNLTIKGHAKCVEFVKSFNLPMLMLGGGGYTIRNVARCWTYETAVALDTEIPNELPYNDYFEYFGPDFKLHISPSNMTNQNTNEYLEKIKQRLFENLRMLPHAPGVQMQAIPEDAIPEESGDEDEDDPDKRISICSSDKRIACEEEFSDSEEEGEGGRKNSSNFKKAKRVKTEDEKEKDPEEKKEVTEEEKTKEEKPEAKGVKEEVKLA
IC50 (HDAC1; [3]),IC50 [1],IC50 [2],IC50 (HDAC2; [5]),IC50 (HDAC2; [6]),IC50 (HDAC1; [7]),fold worsening of effectiveness against HDAC1 on shifting hydrazide ZBG from para (7a) to meta (8b) (HDAC1; 8b relative to 7a),Compound,"times more potent than Gefitinib toward HT-29 cells [1, 4]","fold enhanced efficiency than reference drug Gefitinib against SH-SY5Y cells [2, 4]"
468 nM,1960 ± 50 nM,4270 ± 120 nM,169 nM,168.8 ± 0.13 nM,–,–,"Cc1nc(C)c(C(=O)Nc2cccc(C(=O)NO)c2)nc1C [Compound 8a, N-(3-(Hydroxycarbamoyl)phenyl)-3,5,6-Trimethylpyrazine-2-Carboxamide]",2.5 times,–
114 nM,15100 ± 430 nM,1600 ± 40 nM,53.7 nM,53.7 ± 0.05 nM,114.3 ± 0.44 nM,–,"Cc1nc(C)c(C(=O)Nc2ccc(C(=O)NN)cc2)nc1C [Compound 7a, N-(4-(Hydrazinecarbonyl)phenyl)-3,5,6-Trimethylpyrazine-2-Carboxamide]",–,4.7 fold
1800 nM,3250 ± 90 nM,28500 ± 800 nM,113 nM,112.9 ± 0.09 nM,1800.1 ± 0.45 nM,15.7 fold,"Cc1nc(C)c(C(=O)Nc2cccc(C(=O)NN)c2)nc1C [Compound 8b, N-(3-(Hydrazinecarbonyl)phenyl)-3,5,6-Trimethylpyrazine-2-Carboxamide]",–,–
264 nM,6110 ± 170 nM,43400 ± 1210 nM,205 nM,205.4 ± 0.43 nM,263.5 ± 1.27 nM,–,"Cc1nc(C)c(C(=O)Nc2ccc(CC(=O)NN)cc2)nc1C [Compound 7c, N-(4-(2-Hydrazinyl-2-Oxoethyl)phenyl)-3,5,6-Trimethylpyrazine-2-Carboxamide]",–,–
2430 nM,4570 ± 130 nM,67000 ± 1910 nM,132 nM,132.3 ± 0.12 nM,2434.7 ± 1.25 nM,–,"Cc1nc(C)c(C(=O)Nc2ccc(CC(=O)NO)cc2)nc1C [Compound 7b, N-(4-(2-(Hydroxyamino)-2-Oxoethyl)phenyl)-3,5,6-Trimethylpyrazine-2-Carboxamide]",–,–
